Test system: A375 human melanoma cells
Assay: A375 human melanoma xenograft in athymic nude mice: tumor volume and survival
Type: in vivo
Source text: Data is represented as tumor volume in mm^3.
Survival was again assessed at day 40.

## bevacizumab
12 mg/kg BEV alone, 1.2 mg/kg BEV pretreatment before AB160
  therapeutic effect in the experiment (in words): not therapeutic
Day 15 post treatment, 12 mg/kg BEV, 30 mg/kg ABX, AB160, or 1.2 mg/kg BEV 24 hr before AB160
  Percent Alive on day 15: 0%
Survival assessed at day 40
  median survival: 7 days

From US11660339B2, “Methods of treating cancer using compositions of antibodies and carrier proteins with antibody pretreatment” (Mayo Foundation for Medical Education and Research, priority 2015, dated 2023)
